From patent US10905118B2, “Triscationic amphiphile compounds, compositions, and methods for making same” (James Madison Innovations, Inc., priority 2014, dated 2021)
Converted amounts (≈) assume the structure as drawn.

Key:
[1] = Isothermal titration calorimetry: critical aggregation concentration and thermodynamics of aggregation; format: physicochemical
Method: Isothermal titration calorimetry (ITC) was used to determine the critical aggregation concentration (CAC) and the thermodynamic parameters at 37° C. associated with aggregate formation for each double-tailed amphiphile for the M-P and M-1 series, as shown in Table 1.
A Nano ITC was used to measure the heat change associated with the deaggregation of amphiphiles via power compensation. A concentrated aqueous solution of amphiphile (>>CAC) was titrated into a thermally controlled sample cell, initially containing pure water, in a series of discrete injections. Isothermal titration calorimetry was used to determine the critical aggregation concentration (CAC) and ΔHagg. Shown in FIG. 5 is the heat rate associated with each injection versus time for 9 (M-1,14,14). Shown in FIG. 6 is the integration of the heat per injection normalized by the number of moles of each injection versus the increasing concentration of amphiphile in the well. In FIG. 6, inset, CAC is determined by calculating the first derivative the heat curve.
During initial injections (Range I), measured heat changes are due to both the dilution of aggregates and deaggregation. This can be observed in the first 10 injections, where aggregates absorbed heat and disassociated into dissolved monomers. The heat change produced by each injection was approximately constant in this range. In Range II, injected aggregates don't fully dissociate, reducing the total absorbed heat for each subsequent injection. At concentrations well above the CAC (Range III), absorbed heat is attributed only to the dilution of aggregates and is approximately constant. […] CAC and thermodynamic data were not determined for the amphiphiles with the shortest tails [1 (M-P,8,8) and 6 (M-1,8,8)] because the heat evolved during injection was […] the threshold of the instrument.
The difference between the average heat of injections in Range I, representing the total heat due to the dilution of aggregates and deaggregation, and the average heat of injections in Range III, representing the heat due solely to the dilution of aggregates, gives the heat of deaggregation, ΔHdeagg. The ΔHdeagg for compound 9 (M-1,14,14) is 37 kJ/mol, corresponding to a heat of aggregate formation, ΔHagg, of −37 kJ/mol (ΔHagg=−ΔHdeagg).
The ΔGagg can be approximated for the aggregation of nonionic amphiphiles by the equation: ΔGagg=RT ln(CAC/55.5) (3)
where m is the concentration of counterions that associate with a aggregate and n is the number of monomers that associate to form an aggregate. […] BBA-Biomembranes. 2000, 1508, 69-85.)
The entropy of aggregation (ΔSagg) is dictated by a combination of entropic factors that favor or disfavor aggregate formation and can be approximated using the Gibbs-Helmholtz equation: ΔGagg=ΔHagg−TΔSagg (5)
CAC and ΔHagg were determined using a Nano-ITC (TA-Instruments). Prior to each experiment the sample cell was washed with dH2O (300 mL), ethanol (100 mL), dH2O (300 mL) and nanopure water (200 mL). Next, 950 μL of nanopure water was added to the sample cell. A concentrated aqueous solution (>>CAC) of amphiphile was prepared and equilibrated at 37° C. A 250 μL syringe was filled with the aqueous solution, and loaded into the Nano ITC. Multiple single injections in aliquots of 5 μL were injected into the sample cell with time intervals varying from 300 s to 1400 s. Samples were continuously stirred (300 rpm) throughout the titration. The Nano-Analyze program (TA-Instruments) was used to analyze the data. CAC and ΔHagg values reported are the average of two or more repeat experiments for each amphiphile.

Bacillus cereus = experiment: Minimum inhibitory concentration, B. cereus; format: cell-based; settings: Mueller-Hinton Broth, 37° C., 72 h
Method: (§1) The MIC values of all compounds from both double-tailed series were determined for four Gram-positive (Staphylococcus aureus, Enterococcus faecalis, Streptococcus agalactiae, and Bacillus cereus) and two Gram-negative (Escherichia coli and Pseudomonas aeruginosa) strains, which are shown in Table 3.
(§2) The Gram-positive bacterial strains used tested were Staphylococcus aureus subsp. aureus ATCC® 29213™, Enterococcus faecalis ATCC® 29212™, Bacillus cereus, and Streptococcus agalactiae J48.^58 The Gram-negative bacterial strains used were Escherichia coli ATCC® 25922™ and Pseudomonas aeruginosa ATCC® 27853™. All strains were grown in 1× Mueller-Hinton Broth at 37° C. for 12-24 h. For the MIC and combination studies, bacterial suspensions were prepared by diluting overnight cultures to 5×10^6 CFU/mL in 2× Mueller-Hinton Broth, so that when amphiphile solutions are added the final broth strength is 1×.
(§3) The methods used to determine the MIC and MBC were performed as previously described and followed the standards set forth by the Clinical and Laboratory Standards Institute (See Ladow, J. E.; Warnock, D. C.; Hamill, K. M.; Simmons, K. L.; Davis, R. W.; Schwantes, C. R.; Flaherty, D. C.; Willcox, J. A. L.; Wilson-Henjum, K.; Caran, K. L.; Minbiole, K. P. C.; Seifert, K. Bicephalic amphiphile architecture affects antibacterial activity. Eur. J. Med. Chem. 2011, 46, 4219-4226 and P. A. Wayne Methods for dilution antimicrobial tests for bacteria that grow aerobically. 2009.). Briefly, compounds were serially diluted and 100 μL of each dilution were added to the wells of a 96-well flat-bottomed microtiter plate in triplicate. After adding 100 μL of the bacterial cell suspension, the plates were incubated at 37° C. for 72 h. […] The MIC was considered to be bactericidal if the MBC was the same concentration or one concentration higher in the dilution series as the MIC, per Motyl, M.; Dorso, K.; Barrett, J.; Giacobbe, R. Basic microbiological techniques used in antibacterial drug discovery. Curr. Protoc. Pharmacol. 2006, Chapter 13.

Enterococcus faecalis = experiment: Minimum inhibitory concentration, E. faecalis; format: cell-based, Enterococcus faecalis ATCC 29212; settings: Mueller-Hinton Broth, 37° C., 72 h
Method: as §1, §2, §3

Streptococcus agalactiae = experiment: Minimum inhibitory concentration, S. agalactiae; format: cell-based, Streptococcus agalactiae J48; settings: Mueller-Hinton Broth, 37° C., 72 h
Method: as §1, §2, §3

Staphylococcus aureus = experiment: Minimum inhibitory concentration, S. aureus; format: cell-based, Staphylococcus aureus subsp. aureus ATCC 29213; settings: Mueller-Hinton Broth, 37° C., 72 h
Method: as §1, §2, §3

Escherichia coli = experiment: Minimum inhibitory concentration, E. coli; format: cell-based, Escherichia coli ATCC 25922; settings: Mueller-Hinton Broth, 37° C., 72 h
Method: as §1, §2, §3

Pseudomonas aeruginosa [2] = experiment: Minimum inhibitory concentration, P. aeruginosa; format: cell-based, Pseudomonas aeruginosa ATCC 27853; settings: Mueller-Hinton Broth, 37° C., 72 h
Method: as §1, §2, §3

[3] = Isothermal titration calorimetry: critical aggregation concentration and thermodynamics of aggregation; format: physicochemical; settings: 37° C., single-tailed M-1,1,n series; for CAC: ITC
Pseudomonas aeruginosa [4] = settings: literature comparison values; cited from earlier work
[5] = ITC, 37° C., pure water, double-tailed M-P and M-1 series

Row | −TΔSmic ([1]; 37° C., Gibbs-Helmholtz equation, double-tailed series) [kcal/mol] | ΔGmic ([1]; 37° C., approximated with RT ln(CAC/55.5), double-tailed series) [kcal/mol] | CMC [1, 5] [mM] | ΔHmic [1, 5] [kcal/mol] | −TΔSagg term (sign, in words) ([1]; Table 1) | SMILES | ΔHagg ([1]; ITC, 37° C.) [kcal/mol] | MIC B. cereus (G+) (Bacillus cereus) [µM] | MIC E. faecalis (G+) (Enterococcus faecalis) [µM] | MIC S. agalactiae (G+) (Streptococcus agalactiae) [µM] | MIC S. aureus (G+) (Staphylococcus aureus) [µM] | MIC E. coli (G−) (Escherichia coli) [µM] | MIC P. aeruginosa (G−) (Pseudomonas aeruginosa [2]) [µM] | ΔGagg [3] [kcal/mol] | −TΔSagg [3] [kcal/mol] | CAC [3] [mM] | MIC against P. aeruginosa (comparison drugs) (Pseudomonas aeruginosa [4]) [µM]
1 | – | – | – | – | – | CCCCCCCCCCCCCCCCCCCC[N+](C)(C)Cc1cc(C[N+](C)(C)C)cc(C[N+](C)(C)C)c1.[Br-].[Br-].[Br-] [Compound S7] | -6.69 | 4 | 4 | 4 | 16 | 31 | 250 | -6.21 | 0.382 | 2.0 | –
2 | – | – | – | – | – | CCCCCCCCCCCCCCCCCC[N+](C)(C)Cc1cc(C[N+](C)(C)C)cc(C[N+](C)(C)C)c1.[Br-].[Br-].[Br-] [Compound S6] | -5.26 | 4 | 4 | 2 | 16 | 16 | 125 | -5.74 | -0.574 | 5.0 | –
3 | – | – | – | – | – | CCCCCCCCCCCCCCCC[N+](C)(C)Cc1cc(C[N+](C)(C)C)cc(C[N+](C)(C)C)c1.[Br-].[Br-].[Br-] [Compound S5] | -3.35 | 4 | 8 | 4 | 31 | 31 | >250 | -5.26 | -2.03 | 9.2 | –
4 | – | – | – | – | – | NC[C@H]1O[C@H](O[C@H]2[C@H](O)[C@@H](O[C@H]3O[C@H](CO)[C@@H](O)[C@H](N)[C@H]3O)[C@H](N)C[C@@H]2N)[C@H](N)C[C@@H]1O [tobramycin] | – | – | – | – | – | – | – | – | – | – | 6.4 (≈ 2.99 µg/mL)
5 | 0.741 | -6.21 | 2.4 | -5.5 | negative | CCCCCCCCCCCC[N+](C)(C)Cc1cc(C[n+]2ccccc2)cc(C[N+](C)(C)CCCCCCCCCCCC)c1.[Br-].[Br-].[Br-] [Compound 3] | – | 2 | 2 | 1 | 2 | 4 | 8 | – | – | – | –
6 | – | – | – | – | – | CCCCCCCCCCCCCC[N+](C)(C)Cc1cc(C[N+](C)(C)C)cc(C[N+](C)(C)C)c1.[Br-].[Br-].[Br-] [Compound S4] | -2.39 | 16 | 31 | 16 | 63 | 250 | >250 | -4.78 | -2.39 | 21 | –
7 | – | – | – | – | – | CCCCCCCCCCCCCCCCCCCCCC[N+](C)(C)Cc1cc(C[N+](C)(C)C)cc(C[N+](C)(C)C)c1.[Br-].[Br-].[Br-] [Compound S8] | -7.89 | >250 | >250 | >250 | >250 | 63 | >250 | -6.69 | 1.22 | 0.99 | –
